# According to patent US20240254114A1, “PREPARATION OF FUSED AZOLE DERIVATIVES AS NOVEL DIACYLGLYCERIDE 0-ACYLTRANSFERASE 2 INHIBITORS” (Merck Sharp & Dohme LLC, priority 2022, published 2024):
# Target: human DGAT2 (Homo sapiens (Human), UniProt Q96PD7)
# Test: DGAT2 Enzymatic Activity Assay
# Conditions: Human DGAT2 IC50, hDGAT2 membrane prep from Sf-9 cells; 13C18-triolein product by LC/MS/MS
# human DGAT2, sequence (Q96PD7 whole entry): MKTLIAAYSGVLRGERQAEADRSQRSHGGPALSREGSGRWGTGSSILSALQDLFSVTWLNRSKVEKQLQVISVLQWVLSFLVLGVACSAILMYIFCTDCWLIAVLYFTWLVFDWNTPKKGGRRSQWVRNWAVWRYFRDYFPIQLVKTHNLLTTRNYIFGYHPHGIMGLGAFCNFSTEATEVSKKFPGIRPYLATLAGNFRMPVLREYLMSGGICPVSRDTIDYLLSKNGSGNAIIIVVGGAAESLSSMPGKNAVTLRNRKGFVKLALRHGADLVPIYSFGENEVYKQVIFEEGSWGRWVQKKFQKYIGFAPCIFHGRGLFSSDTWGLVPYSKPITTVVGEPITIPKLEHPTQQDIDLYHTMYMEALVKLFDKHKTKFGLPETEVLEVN
row,IC50,SMILES
1,3.3 nM,"Cn1c(C(=O)NC2(C)CCS(=O)(=O)CC2)nc2ccc(OCC(OCC(F)F)C(F)(F)F)nc21 (single isomer, unassigned) [Example 64b, 5-[2-(2,2-difluoroethoxy)-3,3,3-trifluoro-propoxy]-3-methyl-N-(4-methyl-1,1-dioxo-thian-4-yl)imidazo[4,5-b]pyridine-2-carboxamide]"
2,1650 nM,"Cn1c(C(=O)NC2(C)CCS(=O)(=O)CC2)nc2ccc(OCC(OCC(F)F)C(F)(F)F)nc21 (single isomer, unassigned) [Example 64a, 5-[2-(2,2-difluoroethoxy)-3,3,3-trifluoro-propoxy]-3-methyl-N-(4-methyl-1,1-dioxo-thian-4-yl)imidazo[4,5-b]pyridine-2-carboxamide]"

# More lines, now with the values behind:
row,SMILES,IC50
1,"Cn1c(C(=O)NC2(C)CCS(=O)(=O)CC2)nc2ccc(Oc3ncccc3OCC(F)(F)F)cc21 [Example 11, 1-Methyl-N-(4-methyl-1,1-dioxidotetrahydro-2H-thiopyran-4-yl)-6-((3-(2,2,2-trifluoroethoxy)pyridin-2-yl)oxy)-1H-benzo[d]imidazole-2-carboxamide]",1.3 nM
2,"Cn1c(C(=O)NC2(C)CCS(=O)(=O)CC2)nc2ccc(Oc3ncc(Cl)cc3OCC(F)F)nc21 [Example 28, 5-((5-Chloro-3-(2,2-difluoroethoxy)pyridin-2-yl)oxy)-3-methyl-N-(4-methyl-1,1-dioxidotetrahydro-2H-thiopyran-4-yl)-3H-imidazo[4,5-b]pyridine-2-carboxamide]",1.3 nM

# Same assay, conditions: read-out: Human DGAT2 IC50; hDGAT2 membrane prep from Sf-9 cells; 13C18-triolein product by LC/MS/MS
row,IC50,SMILES
1,51 nM,"CC1(NC(=O)c2nc3nc(Oc4ncc(Cl)cc4OCC(F)F)ccc3n2CC2(F)COC2)CCS(=O)(=O)CC1 [Example 56, 5-((5-chloro-3-(2,2-difluoroethoxy)pyridin-2-yl)oxy)-1-((3-fluorooxetan-3-yl)methyl)-N-(4-methyl-1,1-dioxidotetrahydro-2H-thiopyran-4-yl)-1H-imidazo[4,5-b]pyridine-2-carboxamide]"
2,29 nM,"Cc1cnc(Oc2ccc3nc(C(=O)NC4(C)CCS(=O)(=O)CC4)n(C)c3n2)c(OCC(F)F)c1 [Example 37, 5-[[3-(2,2-difluoroethoxy)-5-methyl-2-pyridyl]oxy]-3-methyl-N-(4-methyl-1,1-dioxo-thian-4-yl)imidazo[4,5-b]pyridine-2-carboxamide]"
3,3.3 nM,"O=C(N[C@H]1CCCC(F)(F)[C@@H]1O)c1nc2ccc(Oc3ncc(Cl)cc3OCC(F)F)nc2s1 [Example 96, 5-((5-chloro-3-(2,2-difluoroethoxy)pyridin-2-yl)oxy)-N-((1S,2R)-3,3-difluoro-2-hydroxycyclohex-yl)thiazolo[5,4-b]pyridine-2-carboxamide]"

# Further lines, the compound ahead of its results:
row,SMILES,IC50
1,"CC1(NC(=O)c2nc3ccc(Oc4ncc(Cl)cc4OCC(F)(F)F)cc3o2)CCC(F)(F)CC1 [Example 9, 6-[[5-chloro-3-(2,2,2-trifluoroethoxy)-2-pyridyl]oxy]-N-(4,4-difluoro-1-methyl-cyclohexyl)-1,3-benzoxazole-2-carboxamide]",29 nM
2,"CO[C@]1(C(F)(F)F)C[C@H](NC(=O)c2nc3ccc(Oc4ncc(Cl)cc4OCC(F)(F)F)cc3o2)C1 [Example 6, 6-[[5-chloro-3-(2,2,2-trifluoroethoxy)-2-pyridyl]oxy]-N-[3-methoxy-3-(trifluoromethyl)cyclobutyl]-1,3-benzoxazole-2-carboxamide]",900 nM
